Measurements as given in patent US20220387358A1, “CERAMIDE ANALOG SACLAC MODULATES SPHINGOLIPID LEVELS AND MCL-1 SPLICING TO INDUCE APOPTOSIS IN ACUTE MYELOID LEUKEMIA” (University of Virginia Patent Foundation, priority 2019, published 2022).

Columns and labels:
OCI-AML2 = assay: Cell viability MTS assay; format: cell-based; settings: Homo sapiens, 24-hour treatment
Description: (§1) For cell viability, cell lines were plated at 2.5×10^4 cells per well in a 96-well plate and treated with […] or DMSO vehicle (0.4% of total volume) for the indicated time points and doses. At the experiment end point, 3-(4,5-Dimethylthiazol-2-yl)-5-(3-carboxymethoxyphenyl)-2-(4-sulfophenyl)-2H-tetrazolium (MTS) Cell Proliferation Colorimetric Assay Kit (# K300-5000, BioVision, Inc., Milpitas, Calif., United States of America) reagent was added and incubated for 2 hours. Conversion of MTS to formazan product was measured by absorbance at 490 nm using a BioTek Cytation 3 plate reader (BioTeck, Winooski, Vt., United States of America). Absorbance was normalized to DMSO control, which was defined as 100% viability. Due to limited cell numbers, patient samples and normal samples were plated at 5×10^3 cells per well in a 384-well plate with […] or DMSO control for the indicated time points and doses. At the experiment end point, a luminescent reagent sold under the tradename [sequence]-GLOTM (#G7572, Promega Corporation, Madison, Wis., United States of America) was added. After 15 minutes, luminescence was read on a BioTek Cytation 3 plate reader (BioTek, Winooski, Vt., United States of America). Absorbance was normalized to DMSO control, which was defined as 100% viability.

HL-60/VCR = assay: Cell viability MTS assay; format: cell-based; settings: Homo sapiens, HL60/VCR; 24-hour treatment
Description: as §1

THP-1 = assay: Cell viability MTS assay; format: cell-based; settings: Homo sapiens, 24-hour treatment
Description: as §1

[1] = test system: PBMCs from healthy donors; assay: Cell viability of normal samples ([…]-GLO); format: cell-based; settings: Homo sapiens, PBMC; PBMCs (n=6); 24 hours
Source text: Healthy donor samples: PBMCs from healthy donors were enriched using the Ficoll-Paque gradient separation method. CD34+PBMCs mobilized with G-CSF were obtained from the University of Virginia Health System Blood Bank (Charlottesville, Va., United States of America). CD34+ cells were isolated from PBMCs with a Human CD34 MicroBead Kit (#130-046, Miltenyi Biotec, Bergisch Gladbach, Germany) using the autoMACS Pro Separator (#130-092-545, Miltenyi Biotec, Bergisch Gladbach, Germany). For cell viability, cell lines were plated at 2.5×10^4 cells per well in a 96-well plate and treated with […] or DMSO vehicle (0.4% of total volume) for the indicated time points and doses. […] Conversion of MTS to formazan product was measured by absorbance at 490 nm using a BioTek Cytation 3 plate reader (BioTeck, Winooski, Vt., United States of America). Absorbance was normalized to DMSO control, which was defined as 100% viability. […] After 15 minutes, luminescence was read on a BioTek Cytation 3 plate reader (BioTek, Winooski, Vt., United States of America). Absorbance was normalized to DMSO control, which was defined as 100% viability.

[2] = test system: MCL-1S transcript in OCI-AML2 cells; assay: RT-qPCR of MCL-1S transcript; format: cell-based, human; settings: 5 μM SACLAC; 6 hours
Description: Cells were seeded at 2.5×10^5 cells per ml in 6-well plates and treated with DMSO or SACLAC for six hours. Cells were harvested and resuspended in TRIzol reagent (#15596026, Invitrogen, Carlsbad, Calif., United States of America). RNA was isolated using Direct-zol RNA Miniprep Plus (#R2072, Zymo Research, Irvine, Calif., United States of America) according to the manufacturer's protocol. RNA was quantified using the Take3 microplate and the pre-programmed RNA quantification protocol on the Gen5 software for the Cytation 3 plate reader (BioTek, Winooski, Vt., United States of America). DNase treatment and reverse transcription were done using the iScript gDNA Clear cDNA Synthesis Kit (#1725035, Bio-Rad Laboratories, Hercules, Calif., United States of America) in accordance with the manufacturer's protocol. The qPCR reaction contained iTaq Universal SYBR Green (#1725122, Bio-Rad Laboratories, Hercules, Calif., United States of America), 140 ng cDNA and primers specific for HPRT (#100-25636, Bio-Rad Laboratories, Hercules, Calif., United States of America), B2M (#100-25636, Bio-Rad Laboratories, Hercules, Calif., United States of America) and MCL-1S (Eurofins (Luxembourg); forward, 5′-[…]-3′ (SEQ ID NO: 1) and reverse, 5′-[…]-3′ (SEQ ID NO: 2)) (38). This primer pair specifically amplifies Mcl-1 transcript variant 2 (MCL-1S) according to BLAST analysis. […]

[3] = test system: primary AML patient samples; assay: Apoptosis by flow cytometry (Annexin V); format: cell-based, human; settings: seven patient samples; 48-hour treatment
Description: Apoptosis in cell lines was assessed after treating 2.5×10^5 cells per ml with drug or vehicle in a 48-well plate for the indicated time points and doses. Primary human AML cells were pre-incubated with SFEM for 48 hours before plating 2×10^5 cells in 24-well plates for the indicated times point and doses. Samples were stained using the Muse Annexin V & Dead Cell Kit (Millipore #MCH100105). Change in mitochondrial membrane potential in cell lines was measured with the Muse® MitoPotential Kit (#MCH100110, MilliporeSigma, Burlington, Mass., United States of America). Caspase activation was measured using the Muse® Caspase 3/7 Assay Kit (#MCH100108, MilliporeSigma, Burlington, Mass., United States of America). For rescue experiments, cells were plated at 2.5×10^4 well in a 96-well plate 24 hours after electroporation. Cells were treated with DMSO or […] for 48 hours and apoptosis was detected as stated above. All kits were used according to manufacturer's protocol. Cells were then analyzed using the Muse® Cell Analyzer (MilliporeSigma, Burlington, Massachusetts, United States of America) (35,36). Experiments included positive and negative controls for proper analysis.

CCCCCCCCCCCCCCC[C@@H](O)[C@H](CO)NC(=O)CCl [SACLAC, N-[(2S,3R)-1,3-dihydroxyoctadecan-2-yl]2-chloroacetamide]
EC50 (OCI-AML2): 1800 nM
EC50 (HL-60/VCR): 3300 nM
EC50 (THP-1): 2600 nM
EC50 [1]: 7400 nM
MCL-1S transcript level [2]: Increased
apoptosis reached by more than half the samples [3]: ≥ 80%
